Laboratory results published in US20060276394A1, “METHODS AND COMPOSITIONS FOR TREATING NEUROLOGICAL DISORDERS” (WYETH, priority 2002, published 2006).
“Also recorded” adds a separate entry of the source.

Tests used:
[1] = cited from earlier work
IGFBP-2 mRNA = experiment: transcriptional profiling of amygdala of drug-treated rats; assay type: in vivo; details: rat amygdala
Description: In the short-term 3 day treatment, it is possible that the drugs might exert their antidepressant effects through decreasing IGFBP-2 expression, which would increase bioavailability of IGF-I. The long-term treatment is of equivalent magnitude but in the opposite direction. This may represent a compensatory mechanism in response to the short-term drug effects.

IGF-I mRNA = experiment: microarray profiling of antidepressant-treated C6 glioma cell lines; assay type: cell-based; details: quiescent C6 glioma cell lines, 24 hours
Description: Glial cell cultures were used because they lack endogenous serotonin and norepinephrine transporter mechanisms. Thus, any transcriptional effects caused by the antidepressant drugs are due to actions beyond the level of the serotonin and norepinephrine receptors and respective transporters. […] Antidepressant drugs may therefore be acting on the glia, which produces the neurotrophic factor IGF-I, which acts in a juxtacrine manner to stimulate neurogenesis.

Balb/C mice = experiment: mouse elevated zero maze (EZM); assay type: in vivo
Method: (§1) To assess the anxiolytic activity of NBI-31772, mice receiving intraventricular administration of NBI-31772 were tested in an elevated zero maze (EZM) or in a four-plate appratus (FPT). NBI-31722 (availabe from Calbiochem/EMD Biosciences, Inc. of San Diego, Calif.) was administered in a volume of 2 μl. Balb/C mice were used for the elevated zero maze and Swiss-Webster mice were used for the four-plate test. One-way analysis of variance (ANOVA) was performed on behavioral data to determine effects of test compound treatments, followed by Least Significant Difference Tests for a post hoc analysis. Data is presented as the mean±SEM.
These effects are similar to those seen with reference anxiolytic compounds chlordiazepoxide and diazepam (Ring et al., Psychopharmacology (Berl.), 2006, 185(2):218-225) and are indicative of anxiolytic-like activity of NBI-31772 in the EZM.

Swiss-Webster mice [2] = experiment: mouse four-plate test (FPT), punished crossings; assay type: in vivo
Method: as §1
The four-plate apparatus consists of a Plexiglas chamber (18×25×16 cm) with a floor consisting of four rectangular metal plates (8×11 cm), which are separated from one another by a 4 mm gap. All four plates are wired to a shock generator (0.8 mA, 0.5 second; Med Associates Inc. of St. Albans, Vt.). In each experiment, mice are placed into the chamber and given an 18-second habituation period followed by a 1-minute test. During the test, the animal's innate motivation to explore the novel environment is suppressed by the delivery of a mild foot shock every time the animal moves from one plate to another (referred to as a ‘punished crossing’). Following each punished crossing, there is a 3-second time out where the mouse may cross the plates without receiving another shock. An experimenter blind to the dosing conditions administers shocks, and a computer records the total number of punished crossings an animal makes during the testing period. Clinically effective classes of anxiolytic compounds such as benzodiazepines, selective serotonin reuptake inhibitors, or 5-HT1A […] produce increases in punished crossings, which is indicative of anxiolytic-like activity.
In each study, mice were given a single icv injection or two icv injections of test compounds or vehicle 20 minutes prior to the test session, and the number of punished crosses during the 1-minute test was recorded. For experiments where 2 icv injections were given, an animal received an injection in both the left and right ventricles, with the second injection given immediately after the first injection. A 26-gauge Hamilton syringe with 3-mm needle was used for injections and the injection site was visualized by locating the middle of the invisible line that runs diagonally from the left eye to the right ear. Mice were housed individually during the interval between injections and behavioral testing.
The mouse four-plate test was performed and statistical analyses conducted as described in Example 9.
In these studies, NBI-31772 and JB1, an IGF-1R antagonist, were administered centrally (icv) with the two injections occurring sequentially. Compounds were administered 20 minutes prior to testing and the number of punished crosses during the 1-minute test was recorded.

Swiss-Webster mice [3] = experiment: mouse tail suspension test (TST); assay type: in vivo; details: for immobility: 20 minutes prior to testing
Method: To assess the on potential antidepressant effects of NBI-31772, Swiss-Webster mice were analyzed using the Tail Suspension Test (TST). In this test, mice were suspended upside down by taping their tails with adhesive laboratory tape (VWR International of West Chester, Pa.) to a flat metal bar connected to a strain gauge within a sound-attenuating chamber (Med Associates Inc. of St. Albans, Vt.). The bar is positioned such that a mouse is not able to grasp the top or the sides of the chamber. The total time spent immobile during a 6-minute test session is automatically recorded. Compounds that decrease the total immobility time compared to control animals are predicted to have antidepressant-like effects. In each study, mice were given a single icv injection of test compound or vehicle 20 minute prior to the test session. Mice were housed individually during the interval between injection and behavioral testing.
One-way analysis of variance (ANOVA) was performed on behavioral data to determine effects of NBI-31772 treatment, followed by Least Significant Difference Tests for a post hoc analysis. The data is presented as the mean±SEM. […] This decrease in immobility indicates antidepressant-like effects similar to that seen with IGF-1.
The mouse tail suspension test was performed and statistical analyses conducted as described in Example 11.

IGFBP-1 to IGFBP-6 = details: cited from earlier work
IGFBP-2 = molecular target: T1, IGFBP-2 (Homo sapiens, UniProt P18065); details: cited from earlier work
T1 sequence (P18065 with tags, fused parts or gaps DUP19-21/R317C): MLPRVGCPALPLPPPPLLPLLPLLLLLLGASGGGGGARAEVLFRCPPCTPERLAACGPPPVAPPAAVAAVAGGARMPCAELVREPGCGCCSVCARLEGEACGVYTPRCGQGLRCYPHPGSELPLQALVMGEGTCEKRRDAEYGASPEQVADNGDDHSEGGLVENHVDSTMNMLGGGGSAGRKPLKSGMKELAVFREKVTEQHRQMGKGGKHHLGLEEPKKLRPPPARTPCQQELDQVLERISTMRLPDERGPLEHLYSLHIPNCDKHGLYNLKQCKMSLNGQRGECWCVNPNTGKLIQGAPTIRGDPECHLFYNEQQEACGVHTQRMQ

fibroblast = details: IGF-I released from binding protein complex; cited from earlier work
adult rat dentate gyrus = experiment: BrdU-positive cell proliferation in adult rat dentate gyrus after chronic icv infusion; assay type: in vivo; details: 10 days icv via minipump, sacrifice Day 11
Method: Previous investigators have shown that IGF-1 administered either intracerebroventricular (icv) or systemically increases proliferation and survival, and (Aberg, et al, 2000; Lichtenwalner et al, 2000). Furthermore, systemic IGF promotes neuronal differentiation. The present study confirms and extends these previous findings. Rats were given IGF-1 for 10 days via a cannula attached to a semiosmotic minipump. On Day 11, animals were sacrificed and quantitative analysis was performed to determine the number of BrdU-positive cells as a measure of cell proliferation. A 66% increase in BrdU-positive cells per hippocampus compared to saline-infused animals was observed (FIG. 10).

[4] = rats, subcutaneous deposition; cited from earlier work

complex of IGF-I and IGFBP-3: dimeric complex of IGF-I and IGFBP-3 in serum
serum half-life [1]: 30 min

Fc1ccc([C@@H]2CCNC[C@H]2COc2ccc3c(c2)OCO3)cc1 [Paroxetine]
expression of IGFBP-2 mRNA compared to vehicle alone (IGFBP-2 mRNA; 3 day treatment): decreased expression
expression of IGFBP-2 mRNA compared to vehicle alone (IGFBP-2 mRNA; 14 day treatment): increased expression

O=C1CC2(CCCC2)CC(=O)N1CCCCN1CCN(c2ncccn2)CC1 [Buspirone]
expression of IGFBP-2 mRNA compared to vehicle alone (IGFBP-2 mRNA; 3 day treatment): decreased expression
expression of IGFBP-2 mRNA compared to vehicle alone (IGFBP-2 mRNA; 14 day treatment): increased expression

C[C@]12CC[C@H]3[C@@H](CC[C@@H]4C[C@@](O)(C(F)(F)F)CC[C@@H]43)[C@@H]1CC[C@@H]2C(=O)CO [GMA-839]
expression of IGFBP-2 mRNA compared to vehicle alone (IGFBP-2 mRNA; 3 day treatment): decreased expression
expression of IGFBP-2 mRNA compared to vehicle alone (IGFBP-2 mRNA; 14 day treatment): increased expression

CNCCC(Oc1ccc(C(F)(F)F)cc1)c1ccccc1 (stereo not shown) [fluoxetine]
expression of IGF-I mRNA (IGF-I mRNA): increased expression

O=C(O)c1cc2cc(O)c(O)cc2c(C(=O)c2ccc(O)c(O)c2)n1 [NBI-31772]
increase in % time in the open arms compared to the vehicle group (Balb/C mice; 0.3 μg icv): 100%
increase in % time in the open arms compared to the vehicle group (Balb/C mice; 1 μg icv): 100%
increase in % time in the open arms compared to the vehicle group (Balb/C mice; 3 μg icv): 81%
increase in % time in the open arms compared to the vehicle group (Balb/C mice; 10 μg icv): 119%
% time spent in the open arms of the maze (Balb/C mice; 0.1-10 μg, icv, 20 minutes prior to testing): dose-dependent increase
increase in punished crossings (Swiss-Webster mice [2]; 10 μg icv): 22%
increase in punished crossings (Swiss-Webster mice [2]; 30 μg icv): 32%
increase in punished crossings compared to vehicle group (Swiss-Webster mice [2]; 30 μg icv, two sequential icv injections study): 24%
seizures, percentage of animals (Swiss-Webster mice [2]; 56 μg icv): 20%
seizures, percentage of animals (Swiss-Webster mice [2]; 100 μg icv): 40%
punished crossings (Swiss-Webster mice [2]; 3.0-30 μg, icv): dose-dependent increase
punished crossings (Swiss-Webster mice [2]; higher doses 56 and 100 μg icv, not used for analysis): an increase in punished crossings was seen
decrease in immobility (Swiss-Webster mice [3]; 3 μg icv): 32%
decrease in immobility (Swiss-Webster mice [3]; 10 μg icv): 35%
decrease in immobility (Swiss-Webster mice [3]; 30 μg icv): 38%
immobility (Swiss-Webster mice [3]; 0.3-30 μg icv): dose-dependent decrease
dissociation of IGF-I from its binding protein complex (IGFBP-1 to IGFBP-6): dissociates
inhibition of 125I IGF-I binding / interaction of IGF-I with IGFBP-1 to 6 (IGFBP-1 to IGFBP-6): inhibits; also recorded: dose-dependent inhibition
activity toward IGFBP-2 compared to the other five IGFBPs (IGFBP-2): highest activity
biological activity of the released IGF-I (fibroblast): biologically active

CNCCCN1c2ccccc2CCc2ccccc21 [desipramine]
expression of IGF-I mRNA (IGF-I mRNA): increased expression

IGF-1: recombinant human IGF-1, insulin-like growth factor, available from Bachem Biosciences
increase in punished crossings from vehicle (Swiss-Webster mice [2]; 0.01 μg dose, central administration): 32%
effects in the four-plate test (FIG. 13) (Swiss-Webster mice [2]; 0.1 μg): anxiolytic-like effects
punished crossings (Swiss-Webster mice [2]; 0.03-1.0 μg, central administration 20 minutes prior to testing): significant overall effect
decrease in immobility from vehicle (Swiss-Webster mice [3]; 10 μg dose): 33%
immobility (Swiss-Webster mice [3]; 1-10 μg): dose-dependent decrease
increase in BrdU-positive cells per hippocampus compared to saline-infused animals (adult rat dentate gyrus): 66%
inhibition of 125I IGF-I binding / interaction of IGF-I with IGFBP-1 to 6 (IGFBP-1 to IGFBP-6): dose-dependent inhibition
serum half-life [1]: 10 min
concentrations in the CNS relative to those in the serum [4]: about 0.5%
plasma concentrations at which uptake into CSF reached a plateau [4]: above 150 ng/ml

COc1ccc(C(CN(C)C)C2(O)CCCCC2)cc1 (stereo not shown) [venlafaxine]
expression of IGF-I mRNA (IGF-I mRNA): increased expression
